One assay addresses JAK1 (Homo sapiens, UniProt P23458). As to the kind of experiment: Kinase activity test (γ33P-ATP isotopic method), JAK1. Format: biochemical. The conditions noted are these: for IC50: 33P-ATP 10 μM, 2 h reaction; for activity in inhibiting the JAK1 kinase compared with Tofacitinib (in words): conclusion from Table 1. The procedure:
(§1) This experiment adopted a γ^33p-ATP isotopic test method to test the inhibitory effect of a compound on kinases JAK1, JAK2, JAK3 and TYK2, and obtained a half inhibitory concentration IC50 of the compound for inhibiting activity of the kinase.
(§2) 20 mM 4-hydroxyethylpiperazine ethanesulfonic acid buffer (Hepes, pH 7.5), 10 mM magnesium chloride (MgCl2), 1 mM ethylene glycol diethyl ether diamine tetraacetic acid (EGTA), 0.02% dodecyl polyethylene glycol ether (Brij35), 0.02 mg/ml bovine serum albumin (BSA), 0.1 mM sodium vanadate (Na3VO4), 2 mM dithiothreitol (DTT), and 1% dimethylsulfoxide (DMSO).
(§3) A compound is dissolved with 100% DMSO to a specific concentration, and then subjected to gradient dilution by an automatic sampling device to obtain the samples to be tested with different concentrations (DMSO solutions).
(§4) 3.1 diluting the reaction substrate with the basic reaction buffer;
(§5) 3.2 adding the kinase into the substrate solution, and gently mixing well;
(§6) 3.3 adding, by the automatic sampling system, the 100% DMSO diluted compounds with different concentrations into the kinase solution, and incubating for 20 min at room temperature; and
(§7) 3.4 adding ^33p-ATP (10 μM, 10 μCi/μl) at room temperature to initiate the kinase reaction for a duration of 2 h.
(§8) The unreacted ATP and the reaction-generated […] in the reaction were removed by an ion exchange filtering system, and then the amount of radioactivity of ^33p isotope in the substrate was detected.
(§9) According to the amount of radioactivity, the kinase activities in the systems added with the inhibitors of different concentrations were calculated, to obtain the inhibitors' effects of the compounds of different concentrations on the kinase activity; and fitting was performed with graphpad prism to obtain the inhibitory IC50 values of the compounds.

Another assay deals with JAK2 (Homo sapiens, UniProt O60674). As to the kind of experiment: Kinase activity test (γ33P-ATP isotopic method), JAK2. In kind it is biochemical. Particulars: 33P-ATP 10 μM, 2 h reaction. The protocol: as §1, §2, §3, §4, §5, §6, §7, §8, §9
The target in a further assay is T1, JAK3 (Homo sapiens, UniProt P52333).
T1 sequence (P52333 1-1124): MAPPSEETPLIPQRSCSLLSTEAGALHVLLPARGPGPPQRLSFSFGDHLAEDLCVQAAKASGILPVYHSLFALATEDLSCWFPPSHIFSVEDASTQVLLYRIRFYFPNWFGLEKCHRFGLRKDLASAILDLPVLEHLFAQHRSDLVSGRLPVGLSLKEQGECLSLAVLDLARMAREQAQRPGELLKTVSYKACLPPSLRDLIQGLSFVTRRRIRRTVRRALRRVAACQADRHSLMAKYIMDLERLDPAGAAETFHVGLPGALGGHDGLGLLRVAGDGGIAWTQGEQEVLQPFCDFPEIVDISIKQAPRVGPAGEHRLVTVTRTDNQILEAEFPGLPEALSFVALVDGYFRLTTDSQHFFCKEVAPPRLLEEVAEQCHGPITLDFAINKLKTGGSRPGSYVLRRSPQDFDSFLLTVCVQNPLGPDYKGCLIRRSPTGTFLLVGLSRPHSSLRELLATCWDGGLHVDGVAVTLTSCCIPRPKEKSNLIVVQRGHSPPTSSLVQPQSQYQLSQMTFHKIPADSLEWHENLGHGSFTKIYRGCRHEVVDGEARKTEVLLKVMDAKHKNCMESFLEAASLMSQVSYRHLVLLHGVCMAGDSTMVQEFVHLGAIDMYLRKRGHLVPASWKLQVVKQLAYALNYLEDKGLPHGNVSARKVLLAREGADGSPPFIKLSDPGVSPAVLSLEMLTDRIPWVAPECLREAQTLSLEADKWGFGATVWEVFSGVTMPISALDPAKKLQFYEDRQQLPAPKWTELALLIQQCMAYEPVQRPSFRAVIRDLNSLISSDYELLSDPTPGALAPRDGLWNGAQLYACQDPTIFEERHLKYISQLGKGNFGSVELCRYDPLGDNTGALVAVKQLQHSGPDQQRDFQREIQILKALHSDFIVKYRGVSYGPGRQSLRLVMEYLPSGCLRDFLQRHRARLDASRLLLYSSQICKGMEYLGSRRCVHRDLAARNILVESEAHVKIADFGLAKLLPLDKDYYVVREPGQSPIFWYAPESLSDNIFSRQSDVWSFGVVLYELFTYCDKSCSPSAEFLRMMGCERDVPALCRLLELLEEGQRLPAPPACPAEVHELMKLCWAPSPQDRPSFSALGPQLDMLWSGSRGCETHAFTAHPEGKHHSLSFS
As to the kind of experiment: Kinase activity test (γ33P-ATP isotopic method), JAK3. Particulars: 33P-ATP 10 μM, 2 h reaction. Format: biochemical. The protocol:
as §1, §2, §3, §4, §5, §6, §7, §8, §9

In assay [1] the test system is DSS induced mouse ulcerative colitis model. As to the kind of experiment: Efficacy test in DSS induced mouse ulcerative colitis model. Format: in vivo. The conditions noted are these: 100 mg/kg group, once a day, mouse DSS model, DAI range 0-4. The source says: Mice of 6-7 weeks old were randomly grouped, 6 mice per group. Purified water was provided ad libitum to the mice in a negative control group, and a 2% solution of dextran sulfate sodium (DSS) was provided ad libitum to the mice in other groups, for 7 consecutive days. During the modeling, medication was given according to the groups, once a day for 7 days (the treatment groups and the mouse numbers can be adjusted according to the specific situation). Within 8-10 days later, the DSS-containing water was replaced with purified water, provided ad libitum to the mice. The normal administration continued for 3 days.
From the first day of administration, the general conditions such as metal state, eating, drinking and activities of the mice were respectively observed every day, the mice were weighed every day, and the animal stools were collected, evaluated for their traits and subjected to the occult blood test. The disease activity index (DAI) of experimental animals within 1-10 days were comprehensively assessed.
Scoring was performed according to the above-mentioned standards. The disease activity index (DAI) of each mouse was obtained by summing the scores of weight loss, stool trait and occult blood condition, to evaluate the disease activity. DAI=(score of weight loss+score of stool trait+score of bloody stool)/3, ranging from 0-4.
The experimental data was processed statistically, and the data are all expressed as mean±SD or mean±SME. The SPSS13.0 software was used for statistical analysis, and the differences among the groups were compared with t test (equal variance) or t′ test (unequal variance).

The test system of assay [2] is DNBS induced rat Crohn's disease model. As to the kind of experiment: Therapeutic activity in DNBS induced rat Crohn's disease model. Format: in vivo. Also on record: rat colon ulcer area: unit not given beside the values. The conditions noted are these: G3, 10 mg/kg-QD, 7 days, mean±SD. The procedure:
Male wistar rats of 4-5 weeks old were adaptively fed for 5 days, and two days before the experiment, randomly divided into 6 groups:
Blank control group: G1 (Normal), 4 normal rats were selected and only given with 30% ethanol, 10 mL/kg.
0.5 mL of 50 mg/mL DNBS (DNBS dissolved in 30% ethanol) was injected into the colon of rats to induce enteritis in rats, for 40 rats in total. Eight of them were selected as model group G2 (Model), and the remaining 32 rats were administrated.
Administration group: the rats with DNBS induced enteritis were administered with ABT494 and the compound of Example 2 respectively and divided into G3-G6 groups, 8 rats/group. G3: ABT494, 10 mg/kg-QD; G4: Example 2, 0.3 mg/kg-BID; G5: Example 2, 1 mg/kg-BID; and G6: Example 2, 3 mg/kg-BID.
The rats were fasted, but fed with water for 48 hours, and a 5% glucose salt solution (10 mL/kg) was used as an energy supplement for experimental animals during the fasting period, once a day. On the day of experimental modeling, the fasting rats were anesthetized with Choutet (25 mg/kg), and then 0.5 mL of 50 mg/mL DNBS was injected from the anus to left colic flexure of the rat (about 8 cm to the anus) to induce rat enteritis. All rats were kept in a […] for 15 min until they were awaken, to prevent the backflow of DNBS. From the day of the experimental modeling, medication was given for 7 days.
After the DNBS modeling, the weights of the animals were measured and recorded every day, the daily activities of the animals were observed, and the abnormalities were recorded. During the experiment, the stool state of the rats was scored every day. On day 7, the rats were anesthetized with isoflurane (3-5%), blood was taken from the orbit, and the serum was separated and stored at −80° C. All animals were euthanized by cervical vertebra dis location after suffocation from excessive CO2 inhalation. The abdomen was cut, the colorectum was take out and longitudinally dissected, and the stool trait in the colorectum was scored. The colorectum was thoroughly rinsed with ice-cold PBS and then the ulcer surface was observed. The length and weight and ulcer area of the colon were recorded, the weight-length ratio (colon weight (g)/length (cm) ratio×100) was calculated, and the overall picture was taken. All intestinal tissue was longitudinally divided into two parts, where one part was fixed with 4% neutral […] and embedded with paraffin, and the rest colon sample was cryopreserved at −80° C.
Excel and Graphapad software were used for statistical analysis, and the results were expressed as mean±SD.

Structures are written as SMILES.

Sequence of JAK1 (P23458 whole entry): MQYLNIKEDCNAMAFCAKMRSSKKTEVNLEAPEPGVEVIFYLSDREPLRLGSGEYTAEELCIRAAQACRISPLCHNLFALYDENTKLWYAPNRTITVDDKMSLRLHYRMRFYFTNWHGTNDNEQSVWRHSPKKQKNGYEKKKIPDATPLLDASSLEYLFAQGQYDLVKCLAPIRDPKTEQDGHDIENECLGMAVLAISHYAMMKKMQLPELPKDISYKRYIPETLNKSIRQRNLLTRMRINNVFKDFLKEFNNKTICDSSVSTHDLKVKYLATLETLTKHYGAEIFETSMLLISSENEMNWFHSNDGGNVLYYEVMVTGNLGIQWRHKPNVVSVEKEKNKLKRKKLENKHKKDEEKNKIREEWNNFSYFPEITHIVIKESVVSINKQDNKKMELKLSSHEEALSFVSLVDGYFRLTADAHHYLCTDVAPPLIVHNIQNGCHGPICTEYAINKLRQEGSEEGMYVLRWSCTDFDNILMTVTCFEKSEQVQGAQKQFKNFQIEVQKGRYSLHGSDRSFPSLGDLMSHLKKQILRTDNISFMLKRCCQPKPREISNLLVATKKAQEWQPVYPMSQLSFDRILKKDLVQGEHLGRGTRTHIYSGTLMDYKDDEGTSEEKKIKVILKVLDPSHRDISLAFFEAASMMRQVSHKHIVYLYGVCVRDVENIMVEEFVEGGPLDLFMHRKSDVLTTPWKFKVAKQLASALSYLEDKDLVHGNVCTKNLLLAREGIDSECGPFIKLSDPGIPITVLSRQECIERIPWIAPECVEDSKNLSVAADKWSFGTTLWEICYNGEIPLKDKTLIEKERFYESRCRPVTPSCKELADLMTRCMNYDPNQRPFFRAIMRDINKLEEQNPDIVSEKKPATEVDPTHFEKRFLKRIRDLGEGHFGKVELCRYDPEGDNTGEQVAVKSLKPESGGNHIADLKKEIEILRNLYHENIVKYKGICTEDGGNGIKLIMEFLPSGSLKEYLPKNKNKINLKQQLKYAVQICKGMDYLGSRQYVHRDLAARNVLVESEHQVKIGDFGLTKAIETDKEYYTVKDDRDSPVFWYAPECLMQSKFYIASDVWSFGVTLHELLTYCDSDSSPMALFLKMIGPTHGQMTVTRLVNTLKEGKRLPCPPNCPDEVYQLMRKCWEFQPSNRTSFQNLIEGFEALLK
Sequence of JAK2 (O60674 whole entry): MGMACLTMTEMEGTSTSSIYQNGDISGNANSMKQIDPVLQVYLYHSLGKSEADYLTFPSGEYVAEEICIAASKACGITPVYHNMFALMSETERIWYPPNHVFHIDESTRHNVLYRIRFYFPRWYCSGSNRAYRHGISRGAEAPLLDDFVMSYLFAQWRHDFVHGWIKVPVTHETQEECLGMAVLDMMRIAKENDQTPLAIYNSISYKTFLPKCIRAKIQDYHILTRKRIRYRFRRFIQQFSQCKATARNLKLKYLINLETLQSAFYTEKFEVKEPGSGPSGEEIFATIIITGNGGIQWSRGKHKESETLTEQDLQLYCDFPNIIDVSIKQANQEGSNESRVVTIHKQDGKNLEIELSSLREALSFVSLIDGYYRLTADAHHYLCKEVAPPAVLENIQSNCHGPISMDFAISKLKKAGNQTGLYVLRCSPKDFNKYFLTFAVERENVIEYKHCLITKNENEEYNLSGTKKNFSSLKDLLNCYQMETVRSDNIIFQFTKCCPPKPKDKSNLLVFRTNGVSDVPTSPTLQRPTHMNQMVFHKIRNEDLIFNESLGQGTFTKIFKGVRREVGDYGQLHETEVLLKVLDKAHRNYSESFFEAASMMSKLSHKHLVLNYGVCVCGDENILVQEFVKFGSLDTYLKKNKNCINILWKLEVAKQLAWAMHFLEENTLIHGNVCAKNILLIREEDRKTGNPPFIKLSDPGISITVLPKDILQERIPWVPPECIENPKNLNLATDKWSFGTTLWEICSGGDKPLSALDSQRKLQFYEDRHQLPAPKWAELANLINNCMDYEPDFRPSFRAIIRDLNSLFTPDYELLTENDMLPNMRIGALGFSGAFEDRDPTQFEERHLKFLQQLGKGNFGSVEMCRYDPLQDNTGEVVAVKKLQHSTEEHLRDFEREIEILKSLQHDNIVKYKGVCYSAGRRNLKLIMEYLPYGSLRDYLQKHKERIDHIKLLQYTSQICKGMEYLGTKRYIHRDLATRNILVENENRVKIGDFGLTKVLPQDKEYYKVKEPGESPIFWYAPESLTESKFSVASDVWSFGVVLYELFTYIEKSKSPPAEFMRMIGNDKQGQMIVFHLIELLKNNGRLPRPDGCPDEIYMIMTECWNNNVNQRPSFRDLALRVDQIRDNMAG

For `NC(=O)c1cnc2[nH]ccc2c1NN1CCC2(CCNC2=O)CC1` [Example 14, 4-(1-keto-2,8-diazaspiro[4.5]decane-8-amino)-1H-7-azaindole-5-carboxamide], the IC50 on JAK1 is 78.3 nM.
Take `CNC(=O)c1cnc2[nH]ccc2c1NN1CCC[C@H](C(=O)NCC(F)F)C1` [Example 22, (S)-4-((3-((2,2-difluoroethyl)carbamoyl)piperidin-1-yl)amino)-N-methyl-1H-7-pyrrolo[2,3-b]pyridine-5-carboxamide]: the values for the IC50 against JAK1, on JAK2 and against JAK3 were 35.9 nM, 137 nM and 103 nM, respectively.
The matching figures for `NC(=O)c1cnc2[nH]ccc2c1NN1[C@@H]2CC[C@H]1C[C@@H](O)C2` [Example 11, 4-((3-hydroxyl-8-azabicyclo[3.2.1]octan-8-yl)amino)-1H-7-azaindole-5-carboxamide]: 11.7 nM, 211 nM and 15.5 nM.
`NC(=O)c1cnc2[nH]ccc2c1NN1C2CCC1COC2` [Example 10, 4-((3-oxa-8-azabicyclo[3.2.1]octan-8-yl)amino)-1H-7-azaindole-5-carboxamide] had an IC50 against JAK1 of 51.9 nM.
As for `Nc1ccc(O)c(C(=O)O)c1` [mesalazine, reference compound], the “DAI score on day 8” value in assay [1] is given as 3.5.
For the compound `CNC(=O)c1cnc2[nH]ccc2c1NN1CCC[C@H](C(=O)NCC(F)(F)F)C1` [Example 23], the IC50 against JAK1 worked out at 0.64 nM; against JAK2, 18.8 nM; against JAK3, 6.54 nM. Also, at JAK1, the “activity in inhibiting the JAK1 kinase compared with Tofacitinib (in words)” value is reported as “higher activity in inhibiting the JAK1 kinase than the positive drug control Tofacitinib”.
Consider `CN(c1ccnc2[nH]ccc12)N1CCCC(C(=O)NCC(F)(F)F)C1` (stereo not shown) [WO2016116025 WX15, reference compound], for which the values for the IC50 at JAK1, against JAK2 and at JAK3 were 17.3 nM, 297 nM and 104 nM, respectively.
In the case of `NC(=O)c1cnc2[nH]ccc2c1NN1CCC[C@@H](C(=O)NCC(F)F)C1` [Example 4, (R)-4-(3-(2,2-difluoroethylcarbamoyl)piperidine-1-amino)-1H-7-azaindole-5-carboxamide], the IC50 was found to be 34.3 nM against JAK1, 522 nM against JAK2 and 224 nM against JAK3.
Turning to `CC[C@@H]1CN(C(=O)NCC(F)(F)F)C[C@@H]1c1cnc2cnc3[nH]ccc3n12` [ABT494, reference compound], the colon weight-length ratio in assay [2] (colon weight (g)/length (cm) ratio×100, model group G2 14.6±5.1) worked out at 13.4±5.2. Moreover, the “rat colon ulcer area” value in assay [2] (model group G2 1.54±2.00) is 1.37±1.72.
For `CCOC(=O)[C@H]1CCCN(Nc2c(C(N)=O)cnc3[nH]ccc23)C1` [Example 8], the 50% inhibitory concentration (IC50) at JAK1 amounted to 2.03 nM; against JAK2, 46.5 nM; against JAK3, 8.67 nM.
The corresponding values for `NC(=O)c1cnc2[nH]ccc2c1NN1CCC[C@H](C(=O)NC2CC2)C1` [Example 6, (S)-4-(3-(cyclopropylcarbamoyl)piperidine-1-amino)-1H-7-azaindole-5-carboxamide] are 1.06 nM, 44.6 nM and 21.7 nM.
With `NC(=O)c1cnc2[nH]ccc2c1NN1CCC(C(=O)NCC(F)(F)F)C1` (stereo not shown) [Example 9], the figures for the IC50 at JAK1, on JAK2 and at JAK3 were 0.66 nM, 42.5 nM and 7.85 nM, respectively. The “activity in inhibiting the JAK1 kinase compared with Tofacitinib (in words)” value at JAK1 is on record as “higher activity in inhibiting the JAK1 kinase than the positive drug control Tofacitinib”.
For `CN(c1ccnc2[nH]ccc12)N1CCCC(C(=O)NCC#N)C1` (stereo not shown) [WO2016116025 WX14, reference compound], the half-inhibitory concentration (IC50) against JAK1 worked out at 19.7 nM; on JAK2, 126 nM; on JAK3, 68.9 nM.
The corresponding values for `CC1CCC(C(=O)NCC(F)(F)F)CN1Nc1c(C(N)=O)cnc2[nH]ccc12` (stereo not shown) [Example 16, 4-(2-methyl-5-(2,2,2-trifluoroethylcarbamoyl)piperidine-1-amino)-1H-7-azaindole-5-carboxamide] are 1.15 nM, 41.2 nM and 9 nM.
The matching figures for `NC(=O)c1cnc2[nH]ccc2c1NN1CCC(C(=O)NCC(F)(F)F)CC1` [Example 19, 4-(4-(2,2,2-trifluoroethylcarbamoyl)piperidine-1-amino)-1H-7-azaindole-5-carboxamide]: 24 nM, 353 nM and 21.4 nM.
